Test results as given in ChEMBL document CHEMBL4813909, “Heterocyclic Diamidine DNA Ligands as HOXA9 Transcription Factor Inhibitors: Design, Molecular Evaluation, and Cellular Consequences in a HOXA9-Dependant Leukemia Cell Model” (J Med Chem, 2019).
The source made the active and inactive calls. The calls are words filed in the database; no cut-off is given here.

What was measured:
MigA9 [1] = test: Upregulation of CEACAM1 gene in mouse MigA9 cells by ingenuity pathway analysis; assay type: functional, cell-based
MigA9 [2] = test: Upregulation of DNMT3A gene in mouse MigA9 cells by ingenuity pathway analysis; assay type: functional, cell-based
[3] = target: Homeobox protein Hox-A9 (Mus musculus) (UniProt P09631); test: Inhibition of HOXA9 in mouse MigA9 cells assessed as induction of gabriely-mir21-targets gene by gene set enrichment analysis; assay type: cell-based
MigA9 [4] = test: Induction of TP53 gene in mouse MigA9 cells by ingenuity pathway analysis; assay type: functional, cell-based
[5] = test system: HOXA9 DNA binding site [UNDEFINED MUTATION]
MigA9 [6] = test: Upregulation of KLF3 gene in mouse MigA9 cells by ingenuity pathway analysis; assay type: functional, cell-based
[7] = target: Homeobox protein Hox-A9 (Mus musculus) (UniProt P09631); test: Inhibition of HOXA9 in mouse MigA9 cells assessed as downregulation of wang-immortalised-by-hoxa9-and meis1-up genes by gene set enrichment analysis; assay type: cell-based
MigA9 [8] = test: Downregulation of KLF2 gene in mouse MigA9 cells by ingenuity pathway analysis; assay type: functional, cell-based
[9] = target: Homeobox protein Hox-A9 (Mus musculus) (UniProt P09631); test: Inhibition of HOXA9 in mouse MigA9 cells assessed as downregulation of martens-tretinoin-response-dn genes by gene set enrichment analysis; assay type: cell-based
HOXA9 DNA binding site [10] = conditions: dose 1.0 µM
MigA9 [11] = test: Induction of RGS10 gene in mouse MigA9 cells by ingenuity pathway analysis; assay type: functional, cell-based
MigA9 [12] = test: Downregulation of ARHGEF1 gene in mouse MigA9 cells by ingenuity pathway analysis; assay type: functional, cell-based
MigA9 [13] = test: Upregulation of timp2 gene in mouse MigA9 cells by ingenuity pathway analysis; assay type: functional, cell-based
[14] = Induction of cell death in mouse MigA9 cells harboring mouse Hoxa9 gene assessed as propidium iodide-positive cells at 20 uM incubated for 24 hrs by propidium iodide staining based flow cytometry (reference value: 9.06 +/- 0.53%); assay type: functional; conditions: dose 20 µM; time 24 hrs
MigA9 [15] = test: Upregulation of rgs10 gene in mouse MigA9 cells by ingenuity pathway analysis; assay type: functional, cell-based
MigA9 [16] = test: Upregulation of DICER1 gene in mouse MigA9 cells by ingenuity pathway analysis; assay type: functional, cell-based
[17] = Induction of cell death in mouse MigA9 cells harboring mouse Hoxa9 gene assessed as propidium iodide-positive cells at 15 uM incubated for 24 hrs by propidium iodide staining based flow cytometry (reference value: 9.06 +/- 0.53%); assay type: functional; conditions: dose 15 µM; time 24 hrs
MigA9 [18] = test: Induction of PIM1 gene in mouse MigA9 cells by ingenuity pathway analysis; assay type: functional, cell-based
[19] = Drug localization in nucleus of human HT-29 cells at 5 uM incubated for 16 hrs by DiOC6/propidium iodide staining based by fluorescence microscopy; assay type: ADME, subcellular; conditions: ht-29, 16 h
MigA9 [20] = test: Induction of IGLL1/IGLL5 gene in mouse MigA9 cells by ingenuity pathway analysis; assay type: functional, cell-based
[21] = Stability in mouse MigA9 cells assessed as visibility of intrinsic fluorescence measured after 10 days by fluorescence microscopy; assay type: ADME, cell-based; conditions: miga9, 240 h, time 10 day
[22] = test system: HOXA9 DNA binding site [UNDEFINED MUTATION]; remark: listed apart in the source
MigA9 [23] = test: Induction of AKAP13 gene in mouse MigA9 cells by ingenuity pathway analysis; assay type: functional, cell-based
MigA9 [24] = test: Upregulation of tac4 gene in mouse MigA9 cells by ingenuity pathway analysis; assay type: functional, cell-based
K562 = test: Anticlonogenic activity in human K562 cells assessed as K562 number at 2.5 uM incubated for 10 days by Methocult-colony forming cell assay relative to control; assay type: functional; conditions: time 10 day
[25] = Induction of cell cycle arrest in mouse MigA9 cells harboring mouse Hoxa9 gene assessed as accumulation at sub-G1 phase at 20 uM incubated for 48 hrs by propidium iodide staining based flow cytometry (reference value: 0.76 +/- 0.1%); assay type: functional
MigA9 [26] = test: Upregulation of E2F1 gene in mouse MigA9 cells by ingenuity pathway analysis; assay type: functional, cell-based
MigA9 [27] = test: Downregulation of pim1 gene in mouse MigA9 cells by ingenuity pathway analysis; assay type: functional, cell-based
MigA9 [28] = test: Upregulation of ID1 gene in mouse MigA9 cells by ingenuity pathway analysis; assay type: functional, cell-based
MigA9 [29] = test: Induction of CD47 gene in mouse MigA9 cells by ingenuity pathway analysis; assay type: functional, cell-based
MigA9 [30] = test: Upregulation of Ncoa6 gene in mouse MigA9 cells by ingenuity pathway analysis; assay type: functional, cell-based
MigA9 [31] = test: Downregulation of FGF7 gene in mouse MigA9 cells by ingenuity pathway analysis; assay type: functional, cell-based
MigA9 [32] = test: Downregulation of CD74 gene in mouse MigA9 cells by ingenuity pathway analysis; assay type: functional, cell-based
MigA9 [33] = test: Induction of ITGAM gene in mouse MigA9 cells by ingenuity pathway analysis; assay type: functional, cell-based
MigA9 [34] = test: Downregulation of onecut1 gene in mouse MigA9 cells by ingenuity pathway analysis; assay type: functional, cell-based
[35] = target: Homeobox protein Hox-A9 (Mus musculus) (UniProt P09631); test: Inhibition of HOXA9 in mouse MigA9 cells assessed as induction of gal-leukemic stem cell-dn genes by gene set enrichment analysis; assay type: cell-based
MigA9 [36] = test: Downregulation of CTSG gene in mouse MigA9 cells by ingenuity pathway analysis; assay type: functional, cell-based
MigA9 [37] = test: Induction of TAC4 gene in mouse MigA9 cells by ingenuity pathway analysis; assay type: functional, cell-based
[38] = target: Homeobox protein Hox-A9 (Mus musculus) (UniProt P09631); test: Inhibition of HOXA9 in mouse MigA9 cells assessed as induction of takeda- targets-of-nup98- hoxa9-fusion-8d-dn genes by gene set enrichment analysis; assay type: cell-based
HOXA9 DNA binding site [39] = conditions: dose 0.5 µM
[40] = target: Homeobox protein Hox-A9 (Mus musculus) (UniProt P09631); test: Inhibition of HOXA9 in mouse MigA9 cells assessed as induction of nuytten-ezh2-targets-up genes by gene set enrichment analysis; assay type: cell-based
[41] = Cytotoxicity against mouse MigA9 cells harboring mouse Hoxa9 gene incubated for 72 hrs by MTS assay; assay type: functional, cell-based; conditions: MigA9, 72 h
HOXA9 DNA binding site [42] = test: Binding affinity to hairpin DNA Hoxa9-binding site 5'-biotin-CCATGATTTACCTCTGTAAATCATGG (unknown origin) by surface plasmon resonance; assay type: nucleic-acid assay

Homeobox protein Hox-A9 (Mus musculus), sequence (P09631 whole entry, the tested form may be a part): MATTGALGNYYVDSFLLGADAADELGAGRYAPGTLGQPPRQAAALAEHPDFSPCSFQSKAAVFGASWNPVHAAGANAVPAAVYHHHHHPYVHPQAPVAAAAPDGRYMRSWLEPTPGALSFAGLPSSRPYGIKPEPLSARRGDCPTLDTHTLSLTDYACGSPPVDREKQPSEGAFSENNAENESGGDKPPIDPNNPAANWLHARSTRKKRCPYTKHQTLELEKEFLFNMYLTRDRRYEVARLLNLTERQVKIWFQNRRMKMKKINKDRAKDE

N=C(N)c1ccc(-c2ccc(-c3nc4ccc(C(=N)N)cc4[nH]3)s2)cc1
Activity (MigA9 [1]): Active
Activity (MigA9 [2]): Active
inhibition [3]: Active
Activity (MigA9 [4]): Active
ΔTm [5]: 4 °C
Activity (MigA9 [6]): Active
inhibition [7]: Active
Activity (MigA9 [8]): Active
inhibition [9]: Active
ΔTm (HOXA9 DNA binding site [10]): > 10 °C
Activity (MigA9 [11]): Active
Activity (MigA9 [12]): Active
Activity (MigA9 [13]): Active
Activity [14]: 21.07%
Activity (MigA9 [15]): Active
Activity (MigA9 [16]): Active
Activity [17]: 13.5%
Activity (MigA9 [18]): Active
Drug transport [19]: Active
Activity (MigA9 [20]): Active
Stabilty [21]: Stable
ΔTm [22]: 4 °C
Activity (MigA9 [23]): Active
Activity (MigA9 [24]): Active
Activity (K562): 100%
Activity [25]: 12%
Activity (MigA9 [26]): Active
Activity (MigA9 [27]): Active
Activity (MigA9 [28]): Active
Activity (MigA9 [29]): Active
Activity (MigA9 [30]): Active
Activity (MigA9 [31]): Active
Activity (MigA9 [32]): Active
Activity (MigA9 [33]): Active
Activity (MigA9 [34]): Active
inhibition [35]: Active
Activity (MigA9 [36]): Active
Activity (MigA9 [37]): Active
inhibition [38]: Active
ΔTm (HOXA9 DNA binding site [39]): 7 °C
inhibition [40]: Active

N=C(N)c1cccc(-c2ccc(-c3nc4cc(C(=N)N)ccc4[nH]3)cc2)c1
ΔTm [5]: 4 °C
ΔTm (HOXA9 DNA binding site [10]): > 10 °C
Activity [14]: 5.17%
Activity [17]: 3.87%
IC50 [41]: 14.1 µM
ΔTm [22]: 4 °C
Activity (K562): 100%
Activity [25]: 1.65%
Kd (HOXA9 DNA binding site [42]): 0.0055 µM
ΔTm (HOXA9 DNA binding site [39]): 7 °C
